Reference: patent US11447480B2, “Compound exhibiting enteropeptidase inhibitory activity” (LG CHEM, LTD., priority 2018, dated 2022)

Each compound was assayed against Recombinant Human Enteropeptidase (Homo sapiens (Human), UniProt P98073) (assay: Enteropeptidase Inhibition Assay). Details: substrate Acetyl-Asp-Asp-Asp-Asp-Lys-AFC 30 μM, 30° C., 1 hour; Ki calculated from IC50 using Cheng-Prusoff equation.
Assay type: biochemical
Experimental: Enteropeptidase Inhibition Assay
The inhibitory activity of the enteropeptidase inhibitor synthesized using the purified Recombinant Human Enteropeptidase and the substrate Acetyl-Asp-Asp-Asp-Asp-Lys-AFC (BioVision) was measured. 7.2 ng/mL of Enteropeptidase diluted with a buffer (20 mM Tris, 50 mM NaCl, pH 7.5) in a 96 well plate (Costar), 30 μM of Acetyl-Asp-Asp-Asp-Asp-Lys-AFC, several concentrations of Enteropeptidase inhibitors (1% DMSO concentration) were dispensed such that a final volume was 100 μL, and then the enzyme reaction was carried out at 30° C. for 1 hour. At this time, 1% DMSO, a substrate and Enteropeptidase instead of the compound were dispensed onto positive control wells, and 1% DMSO and a substrate were dispensed onto negative control wells. The enzyme reaction was […] using an excitation wavelength of 380 nm and an emission wavelength of 500 nm in a fluorescence spectrometer, and then the rate of increase in fluorescence (milli-units per min) between 20 and 60 minutes was measured.
The fluorescence measurement values reduced by the inhibitor diluted at each concentration were converted into relative values % of the positive control group (100% reactivity) and the negative control group (0% reactivity), and used to calculate IC50 values. IC50 is the concentration of the inhibitor that inhibits the enzyme activity by 50%, and was calculated using PRISM (GraphPad). Ki values were calculated from the IC50 values using Cheng-Prusoff equation.

Chain of Recombinant Human Enteropeptidase (P98073 whole entry): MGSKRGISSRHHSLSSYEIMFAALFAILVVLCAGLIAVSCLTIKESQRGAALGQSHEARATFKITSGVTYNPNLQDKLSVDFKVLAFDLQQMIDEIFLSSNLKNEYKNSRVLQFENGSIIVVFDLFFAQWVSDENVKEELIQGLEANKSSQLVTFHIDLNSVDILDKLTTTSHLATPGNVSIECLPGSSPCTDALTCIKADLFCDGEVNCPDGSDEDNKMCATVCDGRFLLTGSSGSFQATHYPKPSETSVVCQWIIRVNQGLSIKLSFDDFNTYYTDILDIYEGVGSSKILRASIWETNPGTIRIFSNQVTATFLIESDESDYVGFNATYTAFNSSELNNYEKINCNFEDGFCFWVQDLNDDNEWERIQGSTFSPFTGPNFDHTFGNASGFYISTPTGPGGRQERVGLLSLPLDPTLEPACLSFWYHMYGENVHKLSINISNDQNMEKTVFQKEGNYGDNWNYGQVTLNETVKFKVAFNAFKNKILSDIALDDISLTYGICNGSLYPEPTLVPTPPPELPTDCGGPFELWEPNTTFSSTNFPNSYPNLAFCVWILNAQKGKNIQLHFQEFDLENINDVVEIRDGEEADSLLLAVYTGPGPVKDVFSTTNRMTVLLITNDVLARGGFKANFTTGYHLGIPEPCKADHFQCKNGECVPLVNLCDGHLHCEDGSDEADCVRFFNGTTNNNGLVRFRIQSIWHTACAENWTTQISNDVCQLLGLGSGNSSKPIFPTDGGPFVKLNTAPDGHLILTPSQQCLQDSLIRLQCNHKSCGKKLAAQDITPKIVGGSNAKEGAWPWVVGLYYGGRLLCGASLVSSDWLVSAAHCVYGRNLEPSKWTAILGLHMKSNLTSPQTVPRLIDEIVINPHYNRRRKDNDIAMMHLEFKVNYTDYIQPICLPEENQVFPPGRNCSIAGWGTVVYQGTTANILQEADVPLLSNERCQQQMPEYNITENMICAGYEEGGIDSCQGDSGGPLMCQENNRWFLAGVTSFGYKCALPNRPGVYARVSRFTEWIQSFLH

| Compound | Ki [nM] |
| --- | --- |
| CC(C)(CNc1nc2ccc(C(=O)Oc3ccc(C(=N)N)cc3)cc2s1)C(=O)O [Example 73, 3-((6-((4-Carbamimidoylphenoxy)carbonyl)benzo[d]thiazol-2-yl)amino)-2,2-dimethylpropanoic Acid] | 0.89 |
| CCN(CCC(=O)Nc1ccc(C(=O)O)cc1)c1ncc(C(=O)Oc2ccc(C(=N)N)cc2F)s1 [Example 55, 4-(3-((5-((4-Carbamimidoyl-2-fluorophenoxy)carbonyl)thiazol-2-yl)(ethyl)amino)propanamido)benzoic Acid] | 8.2 |
| CCN(CCC(=O)OC)c1ncc(C(=O)Oc2ccc(C(=N)N)cc2F)s1 [Example 20, 4-Carbamimidoyl-2-fluorophenyl 2-(ethyl(3-methoxy-3-oxopropyl)amino) thiazole-5-carboxylate] | 2.5 |
| CCN(CCC(=O)Nc1ccc(C(=O)OC)cc1)c1ncc(C(=O)Oc2ccc(C(=N)N)cc2F)s1 [Example 50, 4-Carbamimidoyl-2-fluorophenyl 2-(ethyl(3-((4-(methoxycarbonyl)phenyl)amino)-3-oxopropyl)amino)thiazole-5-carboxylate] | 14 |
| COC(=O)C1CCN(c2ncc(C(=O)Oc3ccc(NC(=N)N)cc3)s2)CC1 [Example 5, 4-Guanidinophenyl 2-(4-(methoxycarbonyl)piperidin-1-yl)thiazole-5-carboxylate] | 510 |
| COC(=O)CCNc1ncc(C(=O)Oc2ccc(C(=N)N)cc2)s1 [Example 10, 4-Carbamimidoylphenyl 2-((3-methoxy-3-oxopropyl)amino)thiazole-5-carboxylate] | 11 |
| CN(CCCC(=O)O)c1nc2ccc(C(=O)Oc3ccc(C(=N)N)cc3)cc2s1 [Example 64, 4-((6-((4-Carbamimidoylphenoxy)carbonyl)benzo[d]thiazol-2-yl)(methyl)amino)butanoic Acid] | 6.4 |
| CCN(CCC(=O)OC)c1ncc(C(=O)Oc2ccc(C(=N)N)cc2)s1 [Example 12, 4-Carbamimidoylphenyl 2-(ethyl(3-methoxy-3-oxopropyl)amino)thiazole-5-carboxylate] | 9.7 |
| CCN(CCC(=O)N[C@@H](CC(=O)OC(C)(C)C)C(=O)OC(C)(C)C)c1ncc(C(=O)Oc2ccc(C(=N)N)cc2F)s1 [Example 46, Di-tert-butyl(3-((5-((4-carbamimidoyl-2-fluorophenoxy)carbonyl)thiazol-2-yl)(ethyl)amino)propanoyl)-L-aspartate] | 40 |
